This assay concerns LG0703-F948-PDC complex spheroid viability. Kind of assay: Anticancer human tumor LG0703-F948-PDC patient-derived lung adenocarcinoma cell line growth inhibition. The conditions noted are these: for viability, T/C: stronger effect = lower value; for IC50: curve of compound. An excerpt: Multicellular complex tumor spheroid response to LSD1 Inhibitor Iadademstat in combination with a variety of drugs and investigational agents in selected tumor cell lines
The current study was undertaken to assess response to LSD1 inhibitors in combination with standard-of-care drugs and investigational agents in solid tumor complex spheroid models as well as in the K-562 leukemia. Complex spheroids include a stromal component modeled by human endothelial cells (HUVEC) and fibroblasts modeled by human mesenchymal stem cells (MSCs). The concentration ranges selected for each drug and investigational agent were based upon clinically achievable concentrations if the clinical Cmax of the agent was known.
Compounds. The drugs and investigational agents used in this study are listed on Table 1. All of the agents used, including staurosporine (NSC755774) and gemcitabine (NSC613327), were obtained from the Developmental Therapeutics Program, NCI. FDA-approved anticancer drugs are available from the NCI at http://dtp.nci.nih.gov/branches/dscb/oncology_drugset_explanation.html. Drugs and investigational agents were >95% pure by proton nuclear magnetic resonance (NMR) and liquid chromatography/mass spectrometry (LC/MS). Stock solutions were prepared at 400x in DMSO, stored at -70 degrees C, and diluted in fresh medium prior to their use. The final concentration of DMSO in cell culture wells never exceeded 0.25% (v/v). The FDA-approved anticancer drug set is available from the Developmental Therapeutics Program at https://dtp.cancer.gov/organization/dscb/obtaining/available_plates.htm. All drugs and investigational agents were tested over a range starting from a high concentration at or near the clinical Cmax and decreasing in half-log increments. If the clinical Cmax for an agent had not been determined, the highest concentration tested was 10 microM.
Cell Lines. The patient-derived cancer cell (PDC) lines: 292921-168-R-J2-PDC, K24384-001-R-PDC, and 521955-158-R2-J5-PDC pancreatic carcinomas, 556581-035-R-J1 ovarian carcinoma, 324938-238-R-J1-PDC, 855422-203-R-J1-PDC and 883617-216-R-J1-PDC urothelial bladder carcinomas, 743489-274-T-PDC renal cell carcinoma, 138582-R-J1 Merkel cell tumor, K60290-347-R-J1 and K57222-313-R-J1-PDC glioblastomas, 653999-131-R-J2-PDC, LG0703-F948-PDC, and 349418-098-R-PDC non-small cell lung carcinomas, 885512-296-R-J2-PDC, 171881-019-R-J1-PDC breast carcinomas and 186277-243-T-J2-PDC and 233499-124-R-J2-PDC colon carcinomas were obtained from the NCI Patient-Derived Models Repository (PDMR, https://pdmr.cancer.gov). The established cell lines NCI/ADR-RES (RRID:CVCL_14520 and OVCAR-5 (RRID:CVCL_1628) ovarian carcinomas, 786-O (RRID:CVCL_1051) and A498 (RRID:CVCL_A498) renal cell carcinoma, NCI-H211 (ATCC, cat. CRL-5824; RRID:CVCL_1529), NCI-H196 (ATCC, cat. CRL-5823, RRID:CVCL_1509), SW 1271 (ATCC, cat. CRL-2177, RRID:CVCL_1716) and NCI-H1876 (ATCC, cat. CRL-5902, RRID:CVCL_1503) small cell lung carcinomas, MDA-MB-231 (RRID:CVCL_0062) and MDA-MB-468 (RRID:CVCL_0419)breast carcinomas (10-12). Pooled donor human umbilical vein endothelial cells (HUVEC, Lonza, cat. CC-2519) and human mesenchymal stem cells (hMSC, Lonza, cat. PT-2501) were purchased from Lonza (Walkersville, MD).
Cell Culture. All cells were maintained in an incubator at 37 degrees C and 5% CO2 with 95% humidity. The PDC lines were cultured according to standard operating procedures established by the NCI PDMR (https://pdmr.cancer.gov). Briefly all PDCs were thawed and cultured in Matrigel-coated flasks prepared with a working solution of 1X Ham's F-12 nutrient mix, without supplementation (Invitrogen, Waltham, MA, cat. 11765054), 100 U/mL penicillin-streptomycin (Invitrogen, cat. 15140122), and 2.5% Matrigel (Corning Inc., Corning, NY, cat. 354248) for the first three passages. […]

Where “and” joins values, the source holds several entries; their conditions need not be identical. Equal entries are not always repeated.
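Note: spheroids exposed to agents for seven days before readout.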
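Throughout, for viability, T/C: 100% = DMSO vehicle control wells as normalization base.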

Regarding `CC(C)CC(NC(=O)C(Cc1ccccc1)NC(=O)c1cnccn1)B(O)O` (configuration not stated), the IC50 was less than 0.316 nM. In addition, the viability, T/C (compound 0.000316 µM) was 11.1% and 6.84%. Further, the viability, T/C (compound 0.001 µM) is 1.41% and 0.31%. Under “compound 0.00316 µM”, the viability, T/C is 0.63% and 0.15%. Further, the viability, T/C (compound 0.01 µM) was 0.17%. In addition, under “compound 0.0316 µM”, the viability, T/C is 0.14% and 0.17%. Further, the viability, T/C (compound 0.1 µM) was 0.21% and 0.29%.
Regarding `CC(C)CC(NC(=O)CNC(=O)c1cc(Cl)ccc1Cl)B1OC(=O)CC(CC(=O)O)(C(=O)O)O1` (configuration not stated), the IC50 is 5.04 nM and 3.85 nM. Where the note is “compound 0.000316 µM”, the viability, T/C is 102% and 100%. The viability, T/C (compound 0.001 µM) was 104% and 92.3%. Moreover, the viability, T/C (compound 0.00316 µM) was 68.4% and 56.8%. For the setting “compound 0.01 µM”, the viability, T/C was 21.7% and 15.9%. Moreover, the viability, T/C (compound 0.0316 µM) is 3.57% and 2.13%. Also, the viability, T/C (compound 0.1 µM) was 0.76% and 0.44%.
With `CC1COCCN1c1cc(-c2ccnn2C)c2ccnc(-c3ccn[nH]3)c2n1` (configuration not stated), the IC50 is 29 nM and 19.7 nM. The viability, T/C (compound 0.00316 µM) was 66.6% and 63.7%. Moreover, the viability, T/C (compound 0.01 µM) is 59.2% and 61.9%. The viability, T/C (compound 0.0316 µM) is 47.8% and 42.4%. Also, for the setting “compound 0.1 µM”, the viability, T/C was 39.4% and 29.3%. For the same molecule, the viability, T/C (compound 0.316 µM) is 28.8% and 27.1%. Also, the viability, T/C (compound 1 µM) is 14% and 10.7%.
Regarding `CC[C@@]1(O)C(=O)OCc2c1cc1n(c2=O)Cc2cc3c(CN(C)C)c(O)ccc3nc2-1`, the IC50 is 75.4 nM and 66.7 nM. For the same molecule, for the setting “compound 0.000316 µM”, the viability, T/C is 111% and 107%. Also, the viability, T/C (compound 0.001 µM) was 97% and 103%. Besides, the viability, T/C (compound 0.00316 µM) is 96.5% and 94.7%. Moreover, the viability, T/C (compound 0.01 µM) was 92.4% and 88.5%. The viability, T/C (compound 0.0316 µM) is 65.7% and 67.3%. The viability, T/C (compound 0.1 µM) is 44.6% and 40.1%.
In the case of `CCc1c2c(nc3ccc(O)cc13)-c1cc3c(c(=O)n1C2)COC(=O)[C@]3(O)CC`, the IC50 was < 0.949 nM and 0.999 nM. Further, the viability, T/C (compound 0.000949 µM) was 46.8% and 51.2%. Further, the viability, T/C (compound 0.003 µM) was 28.6% and 31%. The viability, T/C (compound 0.00949 µM) was 21.1% and 17.5%. In addition, the viability, T/C (compound 0.03 µM) was 12.4% and 14.2%. Where the note is “compound 0.0949 µM”, the viability, T/C was 9.01% and 6.61%. Further, the viability, T/C (compound 0.3 µM) is 4.04% and 3.45%.
Take `COc1cc(Nc2ncc3c(n2)-c2ccc(Cl)cc2C(c2c(F)cccc2OC)=NC3)ccc1C(=O)O`: the IC50 is 205 nM and 196 nM. Where the note is “compound 0.00316 µM”, the viability, T/C is 76.9% and 95.7%. For the same molecule, where the note is “compound 0.01 µM”, the viability, T/C is 79.1% and 75.3%. Besides, the viability, T/C (compound 0.0316 µM) is 76.3% and 75.3%. Under “compound 0.1 µM”, the viability, T/C is 67.7% and 64.7%. Besides, the viability, T/C (compound 0.316 µM) was 39.2% and 42.6%. Moreover, the viability, T/C (compound 1 µM) is 5.79% and 5.84%.
With `Cn1ncnc1C1c2n[nH]c(=O)c3cc(F)cc(c23)NC1c1ccc(F)cc1` (configuration not stated), the IC50 was more than 100 nM. The viability, T/C (compound 0.000316 µM) is 97.7% and 106%. Also, under “compound 0.001 µM”, the viability, T/C was 104% and 106%. The viability, T/C (compound 0.00316 µM) was 87.8% and 95.8%. For the same molecule, the viability, T/C (compound 0.01 µM) is 93.7% and 109%. The viability, T/C (compound 0.0316 µM) was 93.5% and 93.3%. Besides, the viability, T/C (compound 0.1 µM) is 79.6% and 91.1%.
As for `Nc1ccn(C2OC(CO)C(O)C2(F)F)c(=O)n1` (configuration not stated), the IC50 is 2.05 nM and 1.79 nM. In addition, under “compound 0.000949 µM”, the viability, T/C is 64.8% and 61.2%. Moreover, where the note is “compound 0.003 µM”, the viability, T/C is 42.9% and 39.4%. Besides, where the note is “compound 0.00949 µM”, the viability, T/C is 35.1% and 35%. Moreover, the viability, T/C (compound 0.03 µM) was 37.9% and 33.9%. For the setting “compound 0.0949 µM”, the viability, T/C is 36.3% and 30.8%. Besides, for the setting “compound 0.3 µM”, the viability, T/C was 32.1% and 25.6%.
Turning to `Nc1ncn(C2CC(O)C(CO)O2)c(=O)n1` (configuration not stated), the IC50 is more than 1000 nM. Further, where the note is “compound 0.00316 µM”, the viability, T/C is 85% and 110%. Besides, the viability, T/C (compound 0.01 µM) was 101% and 104%. Also, the viability, T/C (compound 0.0316 µM) was 88.3% and 95.8%. For the same molecule, the viability, T/C (compound 0.1 µM) was 91.7% and 91.4%. In addition, the viability, T/C (compound 0.316 µM) is 83.5% and 92.4%. Besides, the viability, T/C (compound 1 µM) is 79.6% and 91.2%.
For `Nc1ncn(C2CC(O)C(CO)S2)c(=O)n1` (configuration not stated), the IC50 is more than 300 nM. For the same molecule, the viability, T/C (compound 0.000949 µM) is 91.3% and 115%. The viability, T/C (compound 0.003 µM) was 118% and 98.8%. For the setting “compound 0.00949 µM”, the viability, T/C is 95.8% and 96.4%. The viability, T/C (compound 0.03 µM) is 112% and 99.8%. Further, the viability, T/C (compound 0.0949 µM) was 111% and 96.1%. Also, for the setting “compound 0.3 µM”, the viability, T/C is 84.7% and 78.1%.
As to `O=C(C=Cn1cnc(-c2cc(C(F)(F)F)cc(C(F)(F)F)c2)n1)NNc1cnccn1`, the IC50 was 8.72 nM and 8.71 nM. Also, where the note is “compound 0.00316 µM”, the viability, T/C is 53.4% and 53.9%. Moreover, the viability, T/C (compound 0.01 µM) was 51.9% and 52.1%. In addition, the viability, T/C (compound 0.0316 µM) is 43.6% and 42.3%. Moreover, the viability, T/C (compound 0.1 µM) is 38% and 35.1%. Moreover, the viability, T/C (compound 0.316 µM) was 35.2% and 29.4%. Besides, the viability, T/C (compound 1 µM) is 30.5% and 24.9%.

For the origin of these results see PubChem BioAssay AID1918952 (Molecular Pharmacology Branch, DTP, NCI, 2023).
